This is an account of results in patent US11661419B2, “Benzimidazole derivative compounds and uses thereof” (Pfizer Inc., priority 2019, dated 2023).

Each structure is given as a SMILES string.

Sequence of Tropomyosin receptor kinase A (TRKA, NTRK1) (P04629 33-796): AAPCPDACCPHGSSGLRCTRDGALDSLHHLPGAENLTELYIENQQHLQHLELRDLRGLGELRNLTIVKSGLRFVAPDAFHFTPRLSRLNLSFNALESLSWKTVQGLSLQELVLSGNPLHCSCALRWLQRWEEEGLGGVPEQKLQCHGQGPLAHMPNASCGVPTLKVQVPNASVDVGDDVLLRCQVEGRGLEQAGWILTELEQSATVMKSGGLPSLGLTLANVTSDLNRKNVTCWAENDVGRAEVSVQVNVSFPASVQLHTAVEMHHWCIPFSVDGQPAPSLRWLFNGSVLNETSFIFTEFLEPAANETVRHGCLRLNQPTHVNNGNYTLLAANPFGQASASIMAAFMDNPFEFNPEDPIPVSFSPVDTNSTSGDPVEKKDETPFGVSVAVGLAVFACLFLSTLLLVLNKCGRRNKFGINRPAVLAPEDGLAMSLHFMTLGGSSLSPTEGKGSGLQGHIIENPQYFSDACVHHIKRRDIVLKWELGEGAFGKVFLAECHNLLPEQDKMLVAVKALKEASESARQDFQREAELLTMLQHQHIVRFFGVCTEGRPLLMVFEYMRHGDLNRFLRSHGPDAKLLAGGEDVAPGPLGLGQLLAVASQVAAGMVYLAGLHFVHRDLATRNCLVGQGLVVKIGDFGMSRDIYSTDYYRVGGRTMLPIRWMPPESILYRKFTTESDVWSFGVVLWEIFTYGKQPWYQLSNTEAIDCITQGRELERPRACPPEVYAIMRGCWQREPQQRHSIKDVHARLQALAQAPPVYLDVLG

One assay has as its system IL-2 in activated CD4+ human T-cells. The experiment in a line: IL-2 inhibition in supernatants from activated CD4+ human T-cells (cisbio HTRF). The class given is cell-based. The conditions noted are these: T-cell; geometric mean of count n; CD3/CD28-expanded human CD4+ T cells stimulated with ImmunoCult, 20 to 24 hrs. As to the method: IL-2-Inhibition Activity, IC50 (uM)
IL-2 inhibition activity in supernatants from activated CD4+ human T-cells was determined by measuring the effect of a test compound on the activity using the cisbio HTRF™ technology.
Human CD4+ T cells were activated with CD3/CD28 for 3 days and expanded for an additional 4-6 days (7 to 9 days total). On day 0, frozen CD4+ T cells were thawed, treated with CD3/CD28 Dynabeads, and incubated at 37° C./5% CO2. On day 3, the beads were removed, and the cells were diluted to 5×10^5 cells/cm^2, placed in G-Rex10 flask, and incubated at 37° C./5% CO2. On day 7 to day 9 the cells were removed from the G-Rex flasks, counted and diluted back to 1×10^6 cells/ml in standard tissue culture flask.
The expanded CD4+ T-cells were centrifuged at 300×g for 10 minutes and resuspended to 0.5 million cells per ml (30,000 cells/well). 60 μl of CD4+ T cells were added per well to a 384 well plate containing 0.1 μL of varying concentrations of test compound in DMSO. The plates were incubated for 15 min at 37° C./5% CO2. 20 μl of diluted ImmunoCult™ ([…] Technologies, 1:12.5 in T cell assay media) were added to all wells of the plate (1:50 final assay concentration). The plates were incubated for an additional 20 to 24 hrs at 37° C./5% CO2. The plates were centrifuged at 300×g for 10 minutes. 16 μL of supernatant was removed and combined with 4 μl of IL-2 HTRF Abs. (cisbio kit). Plates were incubated for 3 hours at RT and read with an EnVision plate reader at 665 nm and 615 nm wavelengths.
(Time-resolved FRET reads energy transfer from a long-lived donor to a nearby acceptor.)
For orientation: IC50 means the concentration that gives 50% inhibition. Higher therefore signals weaker potency in that assay. Molecule `Cc1cc2[nH]c(-c3n[nH]c4c3C[C@@H]3C[C@]3(C)C4)nc2cc1N(C)C(=O)[C@H](C)C1CCOCC1` [Example 4, (R)—N-methyl-N-(6-methyl-2-((4aS,5aR)-5a-methyl-1,4,4a,5,5a,6-hexahydrocyclopropa[f]indazol-3-yl)-1H-benzo[d]imidazol-5-yl)-2-(tetrahydro-2H-pyran-4-yl)propanamide] had an IC50 of 22 nM. The same measure, in the same setting: in the case of `Cc1cc2[nH]c(-c3n[nH]c4c3C[C@@H]3C[C@]3(C)C4)nc2cc1N(C)C(=O)C(C)C1CCOCC1` (stereo partly drawn) [Example 5, N-methyl-N-(6-methyl-2-((4aS,5aR)-5a-methyl-1,4,4a,5,5a,6-hexahydrocyclopropa[f]indazol-3-yl)-1H-benzo[d]imidazol-5-yl)-2-(tetrahydro-2H-pyran-4-yl)propanamide] it was 27 nM; in that of `C[C@@H](C(=O)N(C)c1ccc2[nH]c(-c3n[nH]c4c3C[C@@H]3C[C@]3(C)C4)nc2c1)C1CCOCC1` [Example 7, (R)—N-methyl-N-(2-((4aS,5aR)-5a-methyl-1,4,4a,5,5a,6-hexahydrocyclopropa[f]indazol-3-yl)-1H-benzo[d]imidazol-5-yl)-2-(tetrahydro-2H-pyran-4-yl)propanamide], 13 nM; in that of `CC(C(=O)N(C)c1ccc2[nH]c(-c3n[nH]c4c3C[C@@H]3C[C@]3(C)C4)nc2c1)C1CCOCC1` (stereo partly drawn) [Example 8, N-methyl-N-(2-((4aS,5aR)-5a-methyl-1,4,4a,5,5a,6-hexahydrocyclopropa[f]indazol-3-yl)-1H-benzo[d]imidazol-5-yl)-2-(tetrahydro-2H-pyran-4-yl)propanamide], 26 nM.

Regarding `C[C@H](C(=O)N(C)c1ccc2[nH]c(-c3n[nH]c4c3C[C@@H]3C[C@]3(C)C4)nc2c1)C1CCOCC1` [Example 9, (S)—N-methyl-N-(2-((4aS,5aR)-5a-methyl-1,4,4a,5,5a,6-hexahydrocyclopropa[f]indazol-3-yl)-1H-benzo[d]imidazol-5-yl)-2-(tetrahydro-2H-pyran-4-yl)propanamide], it took 99 nM to reach half-maximal inhibition (IC50).

On to `CN(C(=O)C(F)(F)C1CCOCC1)c1ccc2[nH]c(-c3n[nH]c4c3C[C@@H]3C[C@]3(C)C4)nc2c1` [Example 11, 2,2-difluoro-N-methyl-N-(2-((4aS,5aR)-5a-methyl-1,4,4a,5,5a,6-hexahydrocyclopropa[f]indazol-3-yl)-1H-benzo[d]imidazol-5-yl)-2-(tetrahydro-2H-pyran-4-yl)acetamide], for which the IC50 turned out to be 34 nM.

Take `C[C@@H](C(=O)N(C)c1cc2nc(-c3n[nH]c4c3C[C@@H]3C[C@]3(C)C4)[nH]c2cc1F)N1CCOCC1` [Example 17, (S)—N-(6-fluoro-2-((4aS,5aR)-5a-methyl-1,4,4a,5,5a,6-hexahydrocyclopropa[f]indazol-3-yl)-1H-benzo[d]imidazol-5-yl)-N-methyl-2-morpholinopropanamide]: the IC50 came to 45 nM. Same read-out and setting: in the case of `CCc1cc2[nH]c(-c3n[nH]c4c3C[C@@H]3C[C@]3(C)C4)nc2cc1N(C)C(=O)[C@H](C)N1CCOCC1` [Example 18, (S)—N-(6-ethyl-2-((4aS,5aR)-5a-methyl-1,4,4a,5,5a,6-hexahydrocyclopropa[f]indazol-3-yl)-1H-benzo[d]imidazol-5-yl)-N-methyl-2-morpholinopropanamide] it was 91 nM; in that of `C[C@@H](C(=O)N(C)c1cc(F)c2[nH]c(-c3n[nH]c4c3C[C@@H]3C[C@]3(C)C4)nc2c1)N1CCOCC1=O` [Example 22, (S)—N-(7-fluoro-2-((4aS,5aR)-5a-methyl-1,4,4a,5,5a,6-hexahydrocyclopropa[f]indazol-3-yl)-1H-benzo[d]imidazol-5-yl)-N-methyl-2-(3-oxomorpholino)propanamide], 340 nM; in that of `C[C@H](C(=O)N(C)c1cc(F)c2[nH]c(-c3n[nH]c4c3C[C@@H]3C[C@]3(C)C4)nc2c1)N1CCOCC1=O` [Example 23, (R)—N-(7-fluoro-2-((4aS,5aR)-5a-methyl-1,4,4a,5,5a,6-hexahydrocyclopropa[f]indazol-3-yl)-1H-benzo[d]imidazol-5-yl)-N-methyl-2-(3-oxomorpholino)propanamide], 304 nM. In turn, `Cc1cc2[nH]c(-c3n[nH]c4c3C[C@@H]3C[C@]3(C)C4)nc2cc1N(C)C(=O)CN1CCOC(CO)C1` (stereo partly drawn) [Example 27, 2-(2-(Hydroxymethyl)morpholino)-N-methyl-N-(6-methyl-2-((4aS,5aR)-5a-methyl-1,4,4a,5,5a,6-hexahydrocyclopropa[f]indazol-3-yl)-1H-benzo[d]imidazol-5-yl)acetamide] came in with an IC50 of 289 nM. On the same count and under the same terms, in the case of `Cc1cc2[nH]c(-c3n[nH]c4c3C[C@@H]3C[C@]3(C)C4)nc2cc1N(C)C(=O)CN1CCO[C@@H](CO)C1` [Example 28, 2-((R)-2-(Hydroxymethyl)morpholino)-N-methyl-N-(6-methyl-2-((4aS,5aR)-5a-methyl-1,4,4a,5,5a,6-hexahydrocyclopropa[f]indazol-3-yl)-1H-benzo[d]imidazol-5-yl)acetamide] it was 305 nM; in that of `Cc1cc2[nH]c(-c3n[nH]c4c3C[C@@H]3C[C@]3(C)C4)nc2cc1N(C)C(=O)CN1CCOC(C)(C)C1` [Example 29, 2-(2,2-Dimethylmorpholino)-N-methyl-N-(6-methyl-2-((4aS,5aR)-5a-methyl-1,4,4a,5,5a,6-hexahydrocyclopropa[f]indazol-3-yl)-1H-benzo[d]imidazol-5-yl)acetamide], 58 nM.

For the molecule `Cc1cc2[nH]c(-c3n[nH]c4c3C[C@@H]3C[C@]3(C)C4)nc2cc1N(C)C(=O)CN1CCO[C@H](C)C1` [Example 30, N-Methyl-N-(6-methyl-2-((4aS,5aR)-5a-methyl-1,4,4a,5,5a,6-hexahydrocyclopropa[f]indazol-3-yl)-1H-benzo[d]imidazol-5-yl)-2-((R)-2-methylmorpholino)acetamide], it took 82 nM to reach half-maximal inhibition (IC50). On the same count and under the same terms, the figure for `Cc1cc2[nH]c(-c3n[nH]c4c3C[C@@H]3C[C@]3(C)C4)nc2cc1N(C)C(=O)CN1C[C@H](C)O[C@@H](C)C1` [Example 33, 2-((2S,6S)-2,6-Dimethylmorpholino)-N-methyl-N-(6-methyl-2-((4aS,5aR)-5a-methyl-1,4,4a,5,5a,6-hexahydrocyclopropa[f]indazol-3-yl)-1H-benzo[d]imidazol-5-yl)acetamide] is 68 nM; for `Cc1cc2[nH]c(-c3n[nH]c4c3C[C@@H]3C[C@]3(C)C4)nc2cc1N(C)C(=O)CC1CCOCC1` [Example 35, N-Methyl-N-(6-methyl-2-((4aS,5aR)-5a-methyl-1,4,4a,5,5a,6-hexahydrocyclopropa[f]indazol-3-yl)-1H-benzo[d]imidazol-5-yl)-2-(tetrahydro-2H-pyran-4-yl)acetamide] it is 50 nM; for `Cc1cc2[nH]c(-c3n[nH]c4c3C[C@@H]3C[C@]3(C)C4)nc2cc1N(C)C(=O)CN1CCOCC1=O` [Example 36, N-Methyl-N-(6-methyl-2-((4aS,5aR)-5a-methyl-1,4,4a,5,5a,6-hexahydrocyclopropa[f]indazol-3-yl)-1H-benzo[d]imidazol-5-yl)-2-(3-oxomorpholino)acetamide] it is 96 nM. On the same count and under the same terms, in the case of `C[C@@H](C(=O)N(C)c1cc(O)c2[nH]c(-c3n[nH]c4c3C[C@@H]3C[C@]3(C)C4)nc2c1)N1CCOCC1` [Example 39, (S)—N-(7-hydroxy-2-((4aS,5aR)-5a-methyl-1,4,4a,5,5a,6-hexahydrocyclopropa[f]indazol-3-yl)-1H-benzo[d]imidazol-5-yl)-N-methyl-2-morpholinopropanamide] it was 82 nM; in that of `Cc1c(N(C)C(=O)[C@H](C)N2CCOCC2)cc2nc(-c3n[nH]c4c3C[C@@H]3C[C@]3(C)C4)[nH]c2c1F` [Example 46, (S)—N-(7-fluoro-6-methyl-2-((4aS,5aR)-5a-methyl-1,4,4a,5,5a,6-hexahydrocyclopropa[f]indazol-3-yl)-1H-benzo[d]imidazol-5-yl)-N-methyl-2-morpholinopropanamide], 47 nM.

In the case of `Cc1cc2[nH]c(-c3n[nH]c4c3C[C@@H]3C(F)(F)[C@]3(C)C4)nc2cc1N(C)C(=O)[C@H](C)N1CCOCC1` [Example 53, (S)—N-(2-((4aS,5aR)-5,5-difluoro-5a-methyl-1,4,4a,5,5a,6-hexahydrocyclopropa[f]indazol-3-yl)-5-methyl-1H-benzo[d]imidazol-6-yl)-N-methyl-2-morpholinopropanamide], the midpoint of inhibition, the IC50, lay at 10 nM.

Molecule `CN(C(=O)CC1CCOCC1)c1cc2nc(-c3n[nH]c4c3C[C@@H]3C[C@]3(C)C4)[nH]c2cc1C#N` [Example 54, N-(6-cyano-2-((4aS,5aR)-5a-methyl-1,4,4a,5,5a,6-hexahydrocyclopropa[f]indazol-3-yl)-1H-benzo[d]imidazol-5-yl)-N-methyl-2-(tetrahydro-2H-pyran-4-yl)acetamide] registered an IC50 of 4570 nM.

A further assay addresses Tropomyosin receptor kinase A (TRKA, NTRK1) (Homo sapiens (Human), UniProt P04629). The experiment in a line: TRKA (NTRK1) enzyme Z'-LYTE assay. The class given is biochemical. The conditions noted are these: arithmetic mean of count n; test compound 1 uM, ATP 1 mM. As for the experimental part: Tropomyosin Receptor Kinase a (TRKA) Activity, % Inhibition
TRKA, also known as neurotrophic tyrosine kinase receptor type 1 (NTKR1) activity was determined by measuring the effect of a test compound on the activity against the NTRK1 enzyme using the ThermoFisher Z'-LYTE Assay fluorescence-based coupled enzyme format (www.thermofisher.com/selectscreen). […] The resulting effect value for the tested compound was compared to the assay controls to determine the % inhibition (%).
As a reminder, the inhibition is the change of the read-out against control, counted positive when it falls. The low end stands for a response near the control, the high end for a response far below the control. Regarding `Cc1cc2[nH]c(-c3n[nH]c4c3C[C@@H]3C[C@]3(C)C4)nc2cc1N(C)C(=O)[C@H](C)C1CCOCC1` [Example 4, (R)—N-methyl-N-(6-methyl-2-((4aS,5aR)-5a-methyl-1,4,4a,5,5a,6-hexahydrocyclopropa[f]indazol-3-yl)-1H-benzo[d]imidazol-5-yl)-2-(tetrahydro-2H-pyran-4-yl)propanamide], the inhibition at 1 µM was determined as 95%.
